Assay results taken from US7442392B2, “Pesticides” (priority 2004, dated 2008).

Tested on: root-knot nematodes (Meloidogyne sp), some Pratylenchus sp.
Experiment: Water screen, plant parasitic nematodes
Assay type: in vivo
Procedure: 100 microliters containing nematodes were pipetted into 2.5 cm Petri dishes. The nematodes used were principally root-knot nematodes (Meloidogyne sp) but some initial observations were also made on some Pratylenchus sp. and free-living species (non-plant parasites). 900 microliters of Loquat extract, or 500 microliters of Loquat extract plus 400 microliters of water, were added to the nematodes to give concentrations of 90 or 50% of the original Loquat extract. Total added volume was therefore 1 ml.
Controls were nematodes from the same source placed in tap water.
Following application of the Loquat or amygdalin solution, observations were made after 10 minutes, the next day, and after 5 days.

In the case of `N#C[C@H](O[C@@H]1O[C@H](CO[C@@H]2O[C@H](CO)[C@@H](O)[C@H](O)[C@H]2O)[C@@H](O)[C@H](O)[C@H]1O)c1ccccc1` [amygdalin], the Activity of nematodes (10 minutes, both concentrations (70 mg or 400 mg in 50 ml water)) is reported as “still active”, the Activity of nematodes (5 days later, both amygdalin treatments) is reported as “still active” and the “Activity of amygdalin itself (conclusion)” value (in vivo) is reported as “not active per se”. The Activity of nematodes (next day, both amygdalin treatments) was “active”.
